Results taken from patent US7858790B2, “Modulators of muscarinic receptors” (Vertex Pharmaceuticals Incorporated, priority 2006, dated 2010).

Assays:
[1] = target: T1, M1 muscarinic receptor (Homo sapiens, UniProt P11229); assay: Functional mobilization of intracellular calcium (FLIPR) in CHO cells expressing M1 muscarinic receptor; assay type: cell-based; details: for M1 Activity: CHO cells expressing M1, calcium mobilization; for Emax: CHO, 100% efficacy is the maximum response obtained with the Carbachol control
T1 construct: expressed in transfected cells; host or cells: CHO (M1-CHO recombinant cell line)
T1 sequence (P11229 1-460): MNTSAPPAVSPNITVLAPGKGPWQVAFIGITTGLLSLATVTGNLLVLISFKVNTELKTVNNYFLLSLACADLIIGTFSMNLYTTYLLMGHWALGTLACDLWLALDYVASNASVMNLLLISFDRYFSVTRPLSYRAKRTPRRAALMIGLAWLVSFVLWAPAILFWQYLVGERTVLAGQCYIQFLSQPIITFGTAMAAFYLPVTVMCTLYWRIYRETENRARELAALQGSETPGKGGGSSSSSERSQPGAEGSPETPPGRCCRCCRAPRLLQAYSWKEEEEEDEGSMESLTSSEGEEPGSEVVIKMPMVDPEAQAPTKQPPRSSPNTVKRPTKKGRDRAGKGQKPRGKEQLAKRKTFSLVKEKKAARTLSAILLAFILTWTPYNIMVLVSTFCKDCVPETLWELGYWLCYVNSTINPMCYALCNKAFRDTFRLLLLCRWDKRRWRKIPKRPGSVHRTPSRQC
Protocol: (§1) VI. Assays for Detecting and Measuring Inhibition Properties of Compounds Functional Mobilization of Intracellular Calcium to Determine Muscarinic Receptor Activity:
(§2) CHO cells expressing muscarinic receptors (M1 to M5) are grown as monolayers in tissue culture flasks at 37° C. in a humidified atmosphere containing 5% CO2 and passaged every 3-5 days. The growth media is Dulbecco's modified eagles medium (DMEM, Gibco Cat# 12430-054), containing 25 mM Hepes and supplemented with Fetal Bovine Serum (Hyclone, cat# SH30071.03), 0.1 mM of MEM non-essential amino acids (GIBCO, Cat# 11140-050), 1 mM MEM Sodium Pyruvate (GIBCO Cat# 11360-070) and 100 units/ml of Penicillin G and 100 μg/ml of Streptomycin (GIBCO Cat# 15140-122). The recombinant muscarinic receptor cell lines are grown under antibiotic pressure with media containing 25 μg/ml zeocin and 500 μg/ml G418 (M1-CHO), 4 μg/ml puromycin, 50 μg/ml zeocin and 2.5 μg/ml blasticidin (M2 and M4-CHO) or 50 μg/ml zeocin and 4 μg/ml puromycin (M3 and M5-CHO).
(§3) Cells are harvested at 80-90% confluence using Versene (GIBCO Cat# 15040-066), collected by centrifugation and seeded 18-24 hours prior to running the calcium assay at a density of 5,000-10,000 cells/well in […], clear-bottomed 384-well plates (BD Biocoat, poly-D-lysine, Cat#356663). The day of the experiment, the cells are washed with a plate washer (Bioteck Instruments, ELX 405) using bath buffer (140-mM NaCl, 4.5-mM KCl, 2-mM CaCl2, 1-mM MgCl2, 10-mM Hepes-Na, 10-mM Glucose, pH 7.4, with NaOH) containing 1 mM Probenecid. Next, the calcium dye Fluo-3 (25 μl/well of Fluo-3 μM at 4 μM, Molecular Probes F-1241, in Bath 1 buffer containing 1 mM Probenecid) is added to the 25 μl of Bath 1 remaining in each well after the plate wash and the dye is loaded at 37° C. in the tissue culture incubator for 60-90 min. The fluorescent dye is removed using the plate washer with Bath 1 containing 1 mM Probenecid, leaving 25 μl/well of this solution after the wash. Alternatively, cells can be loaded with the calcium indicator from Molecular Devices (Calcium 3 Assay Reagents, Cat # R7181) adding 5 μl of a 5× solution dye in Bath 1 containing 1 mM Probenecid (10 ml per dye flask cat# R7182 to generate a solution 20×) to 20 μl of the same buffer. After loading for 60 min, the experiment can be run without having to remove the dye.
(§4) Compounds are prepared at a 2× fold concentration in a 96-well plate (round bottom, Costar Corning cat# 3656), by reconstituting the pre-spotted compounds in bath 1 containing 1 mM probenecid. The final concentration DMSO is 0.5%, and the amount of DMSO is normalized across the assay plate. To determine an agonist action of the compounds on muscarinic receptors, the reconstituted compounds are added (25 μl compound/well) to the cell assay plate (containing 25 μl/well) using the multi-channel robotic system of the FLIPR 3 Instrument (Molecular Devices, Sunnyvale, Calif.). To determine a functional inhibitory-action of the compounds on muscarinic receptors, the reconstituted compounds are added (25 μl compound/well) to the assay plate and pre-incubated for 15 min prior to adding 25 μl of Carbachol at 3× the EC80 for each muscarinic subtype. Alternatively, the compounds can be co-applied simultaneously with the agonist. In both assay modes, the fluorescence is recorded for 60 sec (excitation wavelength is […] and emission wavelength 540 nm) using the FLIPR 3 instrument.
(§5) The potency, efficacy and selectivity of the muscarinic compounds were evaluated by screening the compound activity across the whole family (M1 to M5 cells). Compounds were also screened for activity on other proteins such as other GPCRs and ion channels to determine selectivity on M4 receptors.
(§6) Examples of activities and efficacies of the muscarinic compounds of formulae (I, Ia, and Ib) on modulating M1 and M4 receptors are shown below in Table 8. […]

[2] = target: T2, M4 muscarinic receptor (Homo sapiens, UniProt P08173); assay: Functional mobilization of intracellular calcium (FLIPR) in CHO cells expressing M4 muscarinic receptor; assay type: cell-based; details: for M4 Activity: CHO cells expressing M4, calcium mobilization; for Emax: CHO, 100% efficacy is the maximum response obtained with the Carbachol control
T2 construct: expressed in transfected cells; host or cells: CHO (M4-CHO recombinant cell line)
T2 sequence (P08173 1-479): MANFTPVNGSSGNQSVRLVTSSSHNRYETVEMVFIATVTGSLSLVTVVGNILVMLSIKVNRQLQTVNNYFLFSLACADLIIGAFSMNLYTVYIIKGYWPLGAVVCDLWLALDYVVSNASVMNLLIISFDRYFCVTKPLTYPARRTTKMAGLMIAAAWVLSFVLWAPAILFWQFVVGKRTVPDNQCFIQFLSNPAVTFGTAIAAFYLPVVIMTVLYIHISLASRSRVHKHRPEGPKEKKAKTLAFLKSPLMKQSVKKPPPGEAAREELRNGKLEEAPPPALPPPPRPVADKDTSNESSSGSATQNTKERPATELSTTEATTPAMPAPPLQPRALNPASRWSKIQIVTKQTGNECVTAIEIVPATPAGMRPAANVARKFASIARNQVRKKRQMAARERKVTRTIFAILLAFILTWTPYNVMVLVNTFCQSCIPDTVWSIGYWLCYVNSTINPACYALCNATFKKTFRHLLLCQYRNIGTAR
Protocol: as §1, §2, §3, §4, §5, §6

Row | Structure (SMILES) | M1 Activity [1] | Emax [1] | M4 Activity [2] | Emax [2]
1 | CCCOC(=O)N1CCC(N2CCC3(C=C(C(=O)NC(CC)CC)c4ccccc43)CC2)CC1 [compound 42] | + (activity was measured to be greater than 10.0 μM) | < 25% | + (activity was measured to be greater than 10.0 μM) | < 25%
2 | CCC(CC)NC(=O)C1=CC2(CCN(CCC3CCOCC3)CC2)c2ccccc21 [compound 53] | + (activity was measured to be greater than 10.0 μM) | < 25% | +++ (activity was measured to be less than 2.0 μM) | 25 to 100%
3 | CN(C)C(=O)C1=CCC2(CCN(CCC(C)(C)C)CC2)c2ccccc21 [compound 46] | ++ (activity was measured to be from 2.0 μM to 10.0 μM) | 25 to 100% | +++ (activity was measured to be less than 2.0 μM) | 25 to 100%
4 | CCC(CC)NC(=O)C1=CC2(CCN(CC3CCCCC3)CC2)c2ccccc21 [Compound No. 68, 1′-(cyclohexylmethyl)-N-(pentan-3-yl)spiro[indene-1,4′-piperidine]-3-carboxamide] |  | < 25% |  | 25 to 100%
5 | CN(C)C(=O)C1=CC2(CCN(CC3CC4C=CC3C4)CC2)c2ccccc21 (stereo not drawn) [compound 67] | + (activity was measured to be greater than 10.0 μM) | 25 to 100% | +++ (activity was measured to be less than 2.0 μM) | 25 to 100%
6 | CNC(=O)C1=CC2(CCN(CCC(C)CCCC(C)(C)OC)CC2)c2ccccc21 (stereo not drawn) [compound 19] | + (activity was measured to be greater than 10.0 μM) | 25 to 100% | + (activity was measured to be greater than 10.0 μM) | < 25%
7 | CCC(CC)NC(=O)C1=CC2(CCN(CCC(C)(C)C)CC2)c2ccccc21 [compound 39] | + (activity was measured to be greater than 10.0 μM) | < 25% | ++ (activity was measured to be from 2.0 μM to 10.0 μM) | 25 to 100%
8 | CCOC(=O)N1CCC(N2CCC3(C=C(C(=O)NC(CC)CC)c4ccccc43)CC2)CC1 [compound 28] | ++ (activity was measured to be from 2.0 μM to 10.0 μM) | 25 to 100% | +++ (activity was measured to be less than 2.0 μM) | 25 to 100%
9 | CC(C)NC(=O)C1=CC2(CCN(CC3CC4C=CC3C4)CC2)c2ccccc21 (stereo not drawn) [compound 66] | + (activity was measured to be greater than 10.0 μM) | < 25% | +++ (activity was measured to be less than 2.0 μM) | 25 to 100%
10 | CC(C)NC(=O)C1=CCC2(CCN(C3C[C@@H]4CC[C@@H]3C4)CC2)c2ccccc21 (stereo partly drawn) [compound 36] | + (activity was measured to be greater than 10.0 μM) | < 25% | + (activity was measured to be greater than 10.0 μM) | < 25%
11 | CN(C)C(=O)C1=CC2(CCN(C3C[C@@H]4CC[C@@H]3C4)CC2)c2ccccc21 (stereo partly drawn) [compound 64] | + (activity was measured to be greater than 10.0 μM) | < 25% | +++ (activity was measured to be less than 2.0 μM) | 25 to 100%
12 | CCOC(=O)C1=CC2(CCN(CCC(C)(C)C)CC2)c2ccccc21 [compound 62] | + (activity was measured to be greater than 10.0 μM) | 25 to 100% | +++ (activity was measured to be less than 2.0 μM) | 25 to 100%
13 | CCOC(=O)N1CCC(N2CCC3(CC=C(C#N)c4ccccc43)CC2)CC1 [compound 63] | +++ (activity was measured to be less than 2.0 μM) | 25 to 100% | +++ (activity was measured to be less than 2.0 μM) | 25 to 100%
14 | CNC(=O)C1=CC2(CCN(C3CCCCCC3)CC2)c2ccccc21 [compound 41] | ++ (activity was measured to be from 2.0 μM to 10.0 μM) | 25 to 100% | +++ (activity was measured to be less than 2.0 μM) | 25 to 100%
15 | CNC(=O)C1=CC2(CCN(C3CCCCC3)CC2)c2ccccc21 [compound 58] | + (activity was measured to be greater than 10.0 μM) | 25 to 100% | +++ (activity was measured to be less than 2.0 μM) | 25 to 100%
16 | CCOC(=O)N1CCC(N2CCC3(C=C(C(=O)NC)c4ccccc43)CC2)CC1 [compound 65] | +++ (activity was measured to be less than 2.0 μM) | 25 to 100% | +++ (activity was measured to be less than 2.0 μM) | 25 to 100%
17 | CCC(CC)NC(=O)C1=CC2(CCN(C3CCN(C(=O)N(C)C)CC3)CC2)c2ccccc21 [compound 33] | + (activity was measured to be greater than 10.0 μM) | < 25% | + (activity was measured to be greater than 10.0 μM) | < 25%
18 | CNC(=O)C1=CC2(CCN(CCC(C)(C)C)CC2)c2ccccc21 [Compound No. 27, 1′-(3,3-dimethylbutyl)-N-methylspiro[indene-1,4′-piperidine]-3-carboxamide] | +++ (activity was measured to be less than 2.0 μM) | 25 to 100% | +++ (activity was measured to be less than 2.0 μM) | 25 to 100%
19 | CCC(CC)NC(=O)C1=CC2(CCN(CCC3CCSCC3)CC2)c2ccccc21 [compound 76] | + (activity was measured to be greater than 10.0 μM) | < 25% | + (activity was measured to be greater than 10.0 μM) | < 25%
20 | CCOC(=O)N1CCC(N2CCC3(C=C(C(=O)N(C)C)c4ccccc43)CC2)CC1 [compound 60] | +++ (activity was measured to be less than 2.0 μM) | 25 to 100% | +++ (activity was measured to be less than 2.0 μM) | 25 to 100%
